# Test results as given in patent US20070148643A1, “Treatment of Huntington's Disease with EPA” (priority 2002, published 2007).
# Experiments:
# [1] = tested on: patients with genetically-confirmed HD; assay: one year randomised placebo-controlled trial of ethyl-EPA in HD, total motor score (TMS) subscale of the UHDRS; format: in vivo, human
# Description: 135 patients with genetically-confirmed HD were entered into a one year trial. They were randomised to receive either 2 g/day of ethyl-EPA or an identical-appearing placebo. They were evaluated at baseline, six months and 12 months on the total motor score (TMS) subscale of the Unified Huntington's Disease Rating Scale (UHDRS). The UHDRS is the standard rating scale which is used to monitor the development of HD. The TMS is the component of the UHDRS which changes most reliably, rapidly and consistently and is therefore appropriate for monitoring the outcome of clinical trials. At the end of one year, change in TMS was compared in the placebo group and the ethyl-EPA group. […] However, when patients were stratified on the basis of their CAG repeat numbers, a dramatic benefit of ethyl-EPA was uncovered. […] Placebo patients with CAG repeat numbers 45 and below deteriorated by an average of 5.3%. In contrast, the same group of patients on ethyl-EPA improved over the year by 19.3%. This difference was highly statistically significant on either analysis of covariance or on chi square testing. […] Previously the best that had been hoped for in neurodegenerative diseases like HD was a slowing of deterioration rather than any actual improvement. […] Putting it another way, the treated patients had gained at least four and a half years of useful life.
# [2] = tested on: severely disabled patients in the final stages of Huntington's disease; details: 2 g/day, 6 months, cited from earlier work
smiles,measurement,setting,value
"CC/C=C\C/C=C\C/C=C\C/C=C\C/C=C\CCCC(=O)OCC [ethyl-EPA, ethyl ester of eicosapentaenoate]",proportion of patients improving on TMS,"[1]; 2 g/day, CAG repeats 45 and below",great majority of patients on ethyl-EPA actually improved
same,"improvement in TMS over the year, patients with CAG repeat numbers 45 and below","[1]; 2 g/day, CAG repeats 45 and below, placebo deteriorated by 5.3%",19.3%
same,"benefit versus placebo, patients with CAG repeat numbers of 45 or below","[1]; 2 g/day, CAG repeats 45 or below (below 45)",large benefit
same,"change in TMS versus placebo, patients with CAG repeat number of 46 or more","[1]; 2 g/day, CAG repeats 46 or more",did not show any difference at all between placebo and ethyl-EPA
same,"change in TMS versus placebo, all patients","[1]; 2 g/day, all patients (not stratified)",better outcome on ethyl-EPA than on placebo but this was not statistically significant
same,improvement relative to the change in patients on placebo over one year,[1]; CAG repeats 45 and below,more than three and a half times more
same,separation of EPA and placebo patients in years of disease progression after one year,[1]; CAG repeats 45 and below,more than four and a half years
same,"clinical course (abnormal movements, emotional lability and irritability, memory and cognitive function)","[2]; three patients on ethyl-EPA, four on placebo",all three patients who improved were found to be taking ethyl-EPA
same,lateral ventricle size by MRI,"[2]; two patients on ethyl-EPA, beginning versus end of study",reduction in lateral ventricle size
